Source: paper PMC12113998, “Exploring Multivalent Architectures for Binding and Stabilization of N-Acetylgalactosamine 6-Sulfatase” (Molecules, 2025)
Several values for one entry are separate records, joined by “and”; a condition that tells them apart may be missing. Identical values can stand only once. Marks after values point to notes of the source that are not given here.

How the values were obtained:
[1] = target: T1, recombinant human GALNS (rhGALNS VIMIZIM®) (Homo sapiens, UniProt P34059); assay: IC50 on recombinant human GALNS (rhGALNS VIMIZIM); assay type: biochemical
T1 construct: purchased BioMarin (VIMIZIM, elosulfase alfa)
T1 sequence (P34059 27-522): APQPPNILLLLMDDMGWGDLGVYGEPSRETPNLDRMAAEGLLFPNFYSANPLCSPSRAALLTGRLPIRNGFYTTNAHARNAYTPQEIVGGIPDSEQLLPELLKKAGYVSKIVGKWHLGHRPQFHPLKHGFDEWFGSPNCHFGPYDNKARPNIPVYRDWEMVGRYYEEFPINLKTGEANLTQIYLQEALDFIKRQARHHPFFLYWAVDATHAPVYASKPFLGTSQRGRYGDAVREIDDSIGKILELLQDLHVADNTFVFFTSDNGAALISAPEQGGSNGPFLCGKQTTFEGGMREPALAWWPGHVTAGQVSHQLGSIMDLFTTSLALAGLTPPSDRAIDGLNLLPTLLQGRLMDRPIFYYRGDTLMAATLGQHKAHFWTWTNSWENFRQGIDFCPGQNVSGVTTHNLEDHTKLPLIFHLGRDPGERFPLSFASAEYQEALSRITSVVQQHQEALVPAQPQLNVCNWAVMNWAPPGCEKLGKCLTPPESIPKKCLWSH
Experimental: (§1) The promising IC50 values observed for 1 and 36 prompted us to assess their effects on the commercially available wild-type recombinant GALNS (rhGALNS VIMIZIM®). […] Building on these findings, we investigated the potential stabilizing effect of these compounds on the tertiary structure of GALNS through a thermal denaturation study. rhGALNS was preincubated with varying concentrations of the compounds before being subjected to heating at 48 °C for 40 and 60 min. The relative enzyme activity was expressed as the ratio between the activity measured after thermal denaturation at 48 °C and that obtained under physiological conditions at 37 °C.
The IC 50 values of inhibitors against human GALNS in leukocytes isolated from healthy donors or against recombinant human GALNS (rhGALNS VIMIZIM®) were determined by measuring the initial hydrolysis rate with 4 -methylumbelliferyl-β-galactoside-6-sulfate.Na (6.66 mM) at different concentrations of inhibitors.
Data obtained were fitted to the following equation using the OriginPro 2021 (Version 2021. OriginLab Corporation, Northampton, MA, USA): where Vi/Vo, represent the ratio between the activity measured in the presence of the inhibitor (Vi) and the activity of the control without the inhibitor (Vo), “x” the inhibitor concentration, Max and Min, the maximal and minimal enzymatic activity observed, respectively. […]

rhGALNS VIMIZIM® = target: T2, rhGALNS VIMIZIM® (Homo sapiens, UniProt P34059); assay: Stabilization of rhGALNS under thermal denaturation (48 °C, 40 and 60 min); assay type: biochemical
T2 construct: purchased BioMarin (VIMIZIM, elosulfase alfa)
T2 sequence (P34059 27-522): T1 sequence (P34059 27-522)
Experimental: as §1
Figure 3 Stabilization of rhGALNS VIMIZIM® in the presence of 1 (A) and 36 (B) was evaluated in vitro by using heat inactivation. Relative enzymatic activity after thermal treatment (48 °C) for 40 and 60 min at the indicated inhibitor concentrations (μM) with respect to the corresponding assay at 37 °C (no denaturation). Data for control were obtained as above except that no inhibitor was present. Experiments were performed in triplicate (see Supporting Information). […]
The thermal stability induced by 1 and 36 against rhGALNS VIMIZIM® was determined by measuring the hydrolysis rate with 4-methylumbelliferyl-β-galactoside-6-sulfate.Na (6.66 mM) after denaturation of enzyme at 48 °C for 40 minutes or 60 minutes with or without (Ctrl) different concentrations of compounds. […]
After incubation 20 µL of 4-methylumbelliferyl-β-galactoside-6-sulfate.Na substrate solution in Na-Acetate/acetic acid buffer (0.1 M/0.1 M, pH 4.3) containing 0.1 M NaCl, 0.02% (w/v) NaN3 and 5 mM Pb-acetate was added. […] Fluorescence was measured in a SpectraMax M2 microplate reader (Molecular-Devices) using a 365 nm excitation wavelength and a 435 nm emission wavelength. […]
Figure S57. Activity of rhGALNS VIMIZIM® was determined after incubation for 0 minutes or 40 minutes or 60 minutes at 48 °C with or without (Ctrl) different concentrations of 1 by measuring the hydrolysis rate 4-methylumbelliferyl-β-galactoside-6-sulfate.Na. […]

[2] = target: T3, N-acetylgalactosamine-6-sulfatase (GALNS) (Homo sapiens, UniProt P34059); design: method as in doi:10.1039/C6RA15806D; conditions: cited from earlier work
T3 construct: Isolated leukocytes were disrupted by sonication; from tissue; host or cells: human leukocytes from healthy donors (sonicated homogenate)
T3 sequence (P34059 27-522): T1 sequence (P34059 27-522)

IC50 [1] [µM]	enzyme activity with respect to the control after thermal denaturation (rhGALNS VIMIZIM®; 500 µM compound, both time points (40 and 60 min))	enzyme activity with respect to the control after thermal denaturation (rhGALNS VIMIZIM®; 30 µM compound, 40 min) [fold]	enzyme activity with respect to the control after thermal denaturation (rhGALNS VIMIZIM®; 30 µM compound, 60 min) [fold]	Structure (SMILES)	% Inhibition (1 mM) ([2]; 1 mM inhibitor, human leukocyte extracts)	IC50 ([2]; human leukocyte extracts) [µM]	rp/n ([2]; positive MVE as previously reported)
110	around two-fold			O=C(NC(COCc1cn(CCCCCCN2CC(O)C(O)C2CO)nn1)(COCc1cn(CCCCCCN2CC(O)C(O)C2CO)nn1)COCc1cn(CCCCCCN2CC(O)C(O)C2CO)nn1)c1cc(C(=O)NC(COCc2cn(CCCCCCN3CC(O)C(O)C3CO)nn2)(COCc2cn(CCCCCCN3CC(O)C(O)C3CO)nn2)COCc2cn(CCCCCCN3CC(O)C(O)C3CO)nn2)cc(C(=O)NC(COCc2cn(CCCCCCN3CC(O)C(O)C3CO)nn2)(COCc2cn(CCCCCCN3CC(O)C(O)C3CO)nn2)COCc2cn(CCCCCCN3CC(O)C(O)C3CO)nn2)c1 (centres unmarked) [Compound 1]	94 ^[a] %	47 ± 5	9.2 and 6.5–9.2
30		1.3	2.4	OCC1C(O)C(O)CN1CCCCCCn1cc(COCC(COCc2cn(CCCCCCN3CC(O)C(O)C3CO)nn2)(COCc2cn(CCCCCCN3CC(O)C(O)C3CO)nn2)NCc2cc(CNC(COCc3cn(CCCCCCN4CC(O)C(O)C4CO)nn3)(COCc3cn(CCCCCCN4CC(O)C(O)C4CO)nn3)COCc3cn(CCCCCCN4CC(O)C(O)C4CO)nn3)cc(CNC(COCc3cn(CCCCCCN4CC(O)C(O)C4CO)nn3)(COCc3cn(CCCCCCN4CC(O)C(O)C4CO)nn3)COCc3cn(CCCCCCN4CC(O)C(O)C4CO)nn3)c2)nn1 (centres unmarked) [Compound 36]			
